Data on 33 compounds can be found in ChEMBL document CHEMBL1914368, “Imidazo[1,5-a]quinoxalines as irreversible BTK inhibitors for the treatment of rheumatoid arthritis” (Bioorg Med Chem Lett, 2011).

The target in test [1] is Tyrosine-protein kinase Lyn (Homo sapiens, UniProt P07948). As to the kind of experiment: Inhibition of LYN-A expressed in Sf9 cells after 60 mins by TR-FRET Assay.
The nature of test [2]: Inhibition of anti-IgM-stimulated human B cell proliferation assessed as [3H]thymidine incorporation preincubated for 30 mins measured after 3 days. Type of test: functional, cell-based. In general terms: Uptake of a labelled nucleoside into DNA is a usual measure of proliferation.
Test [3] addresses Tyrosine-protein kinase BTK (Homo sapiens, UniProt Q06187). The test can be described thus: Inhibition of human full-length BTK expressed in Sf9 cells using FAM-Srctide peptide as substrate after 60 mins by TR-FRET Assay.
[4] abbreviates: Homo sapiens, B-cell, read-out: IC50.

Chain of Tyrosine-protein kinase BTK (Q06187 whole entry): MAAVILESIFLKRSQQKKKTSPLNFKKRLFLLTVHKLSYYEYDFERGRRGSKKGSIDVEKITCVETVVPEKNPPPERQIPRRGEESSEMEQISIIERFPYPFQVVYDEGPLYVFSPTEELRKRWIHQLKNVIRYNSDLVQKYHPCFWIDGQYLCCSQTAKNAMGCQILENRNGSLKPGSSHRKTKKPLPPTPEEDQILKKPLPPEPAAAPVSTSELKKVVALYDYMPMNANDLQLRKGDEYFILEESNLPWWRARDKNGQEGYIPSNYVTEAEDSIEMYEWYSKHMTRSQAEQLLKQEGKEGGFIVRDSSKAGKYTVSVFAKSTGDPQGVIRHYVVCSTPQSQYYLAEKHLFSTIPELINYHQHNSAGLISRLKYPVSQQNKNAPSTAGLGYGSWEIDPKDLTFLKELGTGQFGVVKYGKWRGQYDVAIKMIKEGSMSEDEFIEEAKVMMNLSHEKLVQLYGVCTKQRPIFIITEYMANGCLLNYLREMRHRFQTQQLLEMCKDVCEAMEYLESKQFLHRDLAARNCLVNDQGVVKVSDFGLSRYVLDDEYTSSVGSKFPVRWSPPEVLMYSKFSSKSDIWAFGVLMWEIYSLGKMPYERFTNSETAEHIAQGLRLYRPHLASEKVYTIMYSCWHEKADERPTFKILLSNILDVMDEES
Chain of Tyrosine-protein kinase Lyn (P07948 whole entry): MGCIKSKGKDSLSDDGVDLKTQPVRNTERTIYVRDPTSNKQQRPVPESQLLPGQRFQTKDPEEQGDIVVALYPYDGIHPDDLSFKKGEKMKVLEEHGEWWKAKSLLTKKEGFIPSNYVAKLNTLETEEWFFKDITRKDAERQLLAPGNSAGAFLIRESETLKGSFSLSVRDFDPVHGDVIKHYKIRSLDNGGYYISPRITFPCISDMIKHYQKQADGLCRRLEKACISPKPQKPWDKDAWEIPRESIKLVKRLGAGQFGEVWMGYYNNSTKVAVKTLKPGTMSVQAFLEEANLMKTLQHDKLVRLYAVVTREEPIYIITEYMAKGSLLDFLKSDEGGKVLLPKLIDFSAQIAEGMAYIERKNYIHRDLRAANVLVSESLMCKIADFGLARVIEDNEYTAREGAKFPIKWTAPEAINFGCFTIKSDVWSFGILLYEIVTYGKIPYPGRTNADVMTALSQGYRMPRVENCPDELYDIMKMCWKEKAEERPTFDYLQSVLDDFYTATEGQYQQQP

By IC50 is commonly meant the concentration needed to halve the response being measured. Regarding `Cc1ccccc1Nc1nc2cc(Cl)c(N(C)C(=O)/C=C/CN(C)C)cc2n2cncc12`, the values for the IC50 in test [1], in test [2] (setting [4]) and in test [3] were 1.3 µM, 0.00217 µM and 0.00483 µM, respectively.

For `Cc1cc(F)ccc1Oc1nc2cc(F)c(N(C)C(=O)/C=C/CN(C)C)cc2n2cncc12`, the figures for the 50% inhibitory concentration (IC50) in test [1], in test [2] (setting [4]) and in test [3] were 10.4 µM, 0.0323 µM and 0.00953 µM, respectively.

With `COc1cc2nc(Nc3ccccc3C)c3cncn3c2cc1N(CC1CC1)C(=O)/C=C/CN(C)C`, the IC50 in test [1] is 1.98 µM; in test [2] (setting [4]) it was 0.0432 µM; in test [3], 0.0453 µM.

In the case of `Cc1ccc(F)cc1Nc1nc2cc(F)c(N(C)C(=O)/C=C/CN(C)C)cc2n2cncc12`, the half-inhibitory concentration (IC50) in test [1] was 3.08 µM; in test [2] (setting [4]), 0.0235 µM; in test [3], 0.00676 µM.

`Cc1cccc(Cl)c1Nc1nc2ccc(N(C)C(=O)/C=C/CN(C)C)cc2n2cncc12`: the concentration for half-maximal inhibition (IC50) in test [1] is 0.0444 µM; in test [2] (b cell) it was “Not Active”; in test [3], 0.0103 µM.

For the compound `Cc1ccccc1Oc1nc2cc(F)c(N(C)C(=O)/C=C/CN(C)C)cc2n2cncc12`, the IC50 is 6.02 µM in test [1], 0.0174 µM in test [2] (setting [4]) and 0.00551 µM in test [3].

Consider `Cc1ccc(O)cc1Nc1nc2ccc(N(C)C(=O)/C=C/CN(C)C)cc2n2cncc12`, for which the IC50 in test [1] came out at 0.0109 µM; in test [2] (setting [4]), 0.00256 µM; in test [3], 0.00155 µM.

On to `Cc1ccc(NC(=O)c2cccc(C(F)(F)F)c2)cc1Nc1nc2ccc(N(C)C(=O)/C=C/CN(C)C)cc2n2cncc12`, for which the IC50 in test [1] was 0.00155 µM; in test [2] (b cell) it was “Not Active”; in test [3], 0.0168 µM.

For `CNc1cc2c(cc1F)nc(Nc1ccccc1C)c1cncn12`, the 50% inhibitory concentration (IC50) worked out at 0.019 µM in test [1] and 0.04 µM in test [3].

As for `Cc1cc(F)ccc1Nc1nc2cc(Cl)c(N(C)C(=O)/C=C/CN(C)C)cc2n2cncc12`, the IC50 was 1.59 µM in test [1], 0.00241 µM in test [2] (setting [4]) and 0.00953 µM in test [3].

For `CN(C)C/C=C/C(=O)N(C)c1cc2c(cc1F)nc(Nc1ccccc1Cl)c1cncn12`, the values for the 50% inhibitory concentration (IC50) in test [1], in test [2] (setting [4]) and in test [3] were 2.13 µM, 0.00675 µM and 0.00182 µM, respectively.

Regarding `COc1cc2nc(Nc3ccccc3C)c3cncn3c2cc1NC(=O)/C=C/CN(C)C`, the half-maximal inhibitory concentration (IC50) in test [1] was 0.0109 µM; in test [2] (b cell), “Not Active”; in test [3], 0.000884 µM.

Consider `CN(C)C/C=C/C(=O)N(C)c1cc2c(cc1Cl)nc(Nc1ccccc1Cl)c1cncn12`, for which the 50% inhibitory concentration (IC50) is 2 µM in test [1], 0.0044 µM in test [2] (setting [4]) and 0.00503 µM in test [3].

`Cc1ccccc1Sc1nc2ccc(N(C)C(=O)/C=C/CN(C)C)cc2n2cncc12`: the IC50 in test [1] stood at 19.6 µM; in test [2] (setting [4]), 0.651 µM; in test [3], 0.283 µM.

Turning to `CNc1ccc2nc(Oc3ccc(F)cc3C)c3cncn3c2c1`, the IC50 in test [1] was 0.56 µM; in test [3] it was 1.22 µM.

`CNc1cc2c(cc1F)nc(Oc1ccccc1C)c1cncn12`: the IC50 in test [1] worked out at 0.13 µM; in test [3], 0.67 µM.

For the compound `Cc1cc(F)ccc1Nc1nc2ccc(N(C)C(=O)/C=C/CN(C)C)cc2n2cncc12`, the results for the IC50 in test [1], in test [2] (setting [4]) and in test [3] were 0.716 µM, 0.002 µM and 0.00296 µM, respectively.

Turning to `Cc1ccc(Cl)cc1Nc1nc2ccc(N(C)C(=O)/C=C/CN(C)C)cc2n2cncc12`, the IC50 is 1.67 µM in test [1], 0.0537 µM in test [2] (setting [4]) and 0.0132 µM in test [3].

Turning to `Cc1cccc(O)c1Nc1nc2ccc(N(C)C(=O)/C=C/CN(C)C)cc2n2cncc12`, the figures for the IC50 in test [1], in test [2] (setting [4]) and in test [3] were 0.167 µM, 0.0449 µM and 0.0104 µM, respectively.

As for `Cc1c(F)cccc1Nc1nc2ccc(N(C)C(=O)/C=C/CN(C)C)cc2n2cncc12`, the 50% inhibitory concentration (IC50) in test [1] was 0.327 µM; in test [2] (setting [4]), 0.00317 µM; in test [3], 0.00189 µM.

Regarding `Cc1c(O)cccc1Nc1nc2ccc(N(C)C(=O)/C=C/CN(C)C)cc2n2cncc12`, the concentration for half-maximal inhibition (IC50) in test [1] was 0.49 µM; in test [2] (b cell) it was “Not Active”; in test [3], 0.0765 µM.

On to `Cc1cc(O)ccc1Nc1nc2ccc(N(C)C(=O)/C=C/CN(C)C)cc2n2cncc12`, for which the 50% inhibitory concentration (IC50) in test [1] turned out to be 0.35 µM; in test [2] (setting [4]) it was 0.00102 µM; in test [3], 0.0122 µM.

Take `COc1cc2nc(Nc3ccccc3C)c3cncn3c2cc1NC(=O)C#CCN1CCOCC1`: the IC50 in test [1] worked out at 0.0466 µM; in test [3], 0.000847 µM.

Turning to `COc1cc2nc(Nc3ccccc3C)c3cncn3c2cc1NC(=O)C#CCN1CCCCC1`, the figures for the IC50 in test [1] and in test [3] were 0.0213 µM and 0.000847 µM, respectively.

On to `CN(C)C/C=C/C(=O)N(C)c1ccc2nc(Cl)c3cncn3c2c1`, for which the concentration for half-maximal inhibition (IC50) in test [1] was > 50 µM; in test [2] (b cell), “Not Active”; in test [3], 4.29 µM.

For the compound `Cc1c(Cl)cccc1Nc1nc2ccc(N(C)C(=O)/C=C/CN(C)C)cc2n2cncc12`, the IC50 in test [1] is 2.32 µM; in test [2] (b cell), “Not Active”; in test [3], 0.0606 µM.

Take `Cc1cc(F)ccc1Nc1nc2cc(F)c(N(C)C(=O)/C=C/CN(C)C)cc2n2cncc12`: the IC50 worked out at 3.45 µM in test [1], 0.00808 µM in test [2] (setting [4]) and 0.00535 µM in test [3].

Take `Cc1ccc(F)cc1Oc1nc2cc(F)c(N(C)C(=O)/C=C/CN(C)C)cc2n2cncc12`: the concentration for half-maximal inhibition (IC50) is 7.4 µM in test [1], 0.144 µM in test [2] (setting [4]) and 0.013 µM in test [3].

For the compound `CNc1ccc2nc(Nc3cc(F)ccc3C)c3cncn3c2c1`, the values for the IC50 in test [1] and in test [3] were 0.04 µM and 0.072 µM, respectively.

With `CCN(C(=O)/C=C/CN(C)C)c1cc2c(cc1OC)nc(Nc1ccccc1C)c1cncn12`, the IC50 was determined as 0.533 µM in test [1], 0.0161 µM in test [2] (setting [4]) and 0.0191 µM in test [3].

With `C=C(CN1CCOCC1)C(=O)Nc1cc2c(cc1OC)nc(Nc1ccccc1C)c1cncn12`, the figures for the 50% inhibitory concentration (IC50) in test [1] and in test [3] were 0.297 µM and 0.00252 µM, respectively.

Take `Cc1ccccc1Nc1nc2ccc(N(C)C(=O)/C=C/CN(C)C)cc2n2cncc12`: the half-maximal inhibitory concentration (IC50) in test [1] worked out at 0.623 µM; in test [2] (setting [4]) it was 0.00317 µM; in test [3], 0.00399 µM.

Consider `Cc1cc(Cl)ccc1Nc1nc2ccc(N(C)C(=O)/C=C/CN(C)C)cc2n2cncc12`, for which the IC50 was 0.378 µM in test [1], 0.00412 µM in test [2] (setting [4]) and 0.00756 µM in test [3].
